# Laboratory results reported in patent US20260325511A1, “METHODS OF USE OF A LIPOSOMAL COMPOSITION COMPRISING AN ATR INHIBITOR” (Jazz Pharmaceuticals Therapeutics, Inc., priority 2023, published 2026).
# Assays:
# Format in all cases: in vivo, mouse
# [1] = system: CRC Colo205; assay: Tumor efficacy study of liposomal ATR inhibitors + irinotecan, CRC Colo205 model (Example 3)
# Method: Tumor efficacy studies were used to compare the efficacy of ATR inhibitors (Compounds A and C) in liposomal formulations in combination with irinotecan against irinotecan as a single agent in CRC Colo205 model.
# (§1) Subcutaneous tumor models were initiated on 6-8 week old, female athymic nude mice. A cell suspension containing 5e6/100 μL CRC Colo205 cells in 1:1 PBS: Matrigel was subcutaneously injected into the hind flank of […] mice. Tumors were measured three times a week by digital caliper and reported as volume, calculated as V=π×1×w∧2 wherein 1 and w denote the longest and shortest tumor diameter respectively. Engrafted mice were then randomized into cohorts for treatment at an average tumor size of 80 mm^3.
# (§2) Mice were organized into appropriate groups consisting of control (empty vehicle) and treatment groups including free irinotecan, irinotecan in combination with liposomal Compound A or liposomal Compound C, or irinotecan and berzosertib. Mice were administered free drug orally, and injected intravenously for liposomal compounds, with the required volume of sample to administer the prescribed dose to the animals based on individual mouse weights on dosing days. Animals were weighed and monitored for survival and in-life observations were collected at the time of weight measurement. Mice were monitored individually to endpoint which was either an individual tumor weight of 2000 mm^3 or other defined risk factors, whichever came first.
# Animal study groups are disclosed in Table 2 (n=8 per group). Irinotecan was administered at 50 mg/kg via IP in a liposomal-free composition, once a week. Liposomal ATR inhibitors were administered at either 20 mg/kg (Group7) or 40 mg/kg (Groups 3, 5, 6, 8-10) via IV every other day. Berzosertib, clinical benchmark, was administered 5 consecutive days with 2 days off schedule. Last dose of any therapeutically active agent was administered on day 33.
# Table 3 summarizes the tumor growth inhibition (TGI %) compared to the vehicle (Group 2) and tumor growth dynamic (TGD) compared to irinotecan single agent ([…]).
# [2] = system: CRC Colo205; assay: Dosing schedule study, once a week, efficacy similar to Example 3 (Example 4A); conditions: vs vehicle; day 28 from inoculation (day 14 from start of dosing); irinotecan 50 mg/kg IP
# [3] = system: CRC Colo205; assay: Dosing schedule study, efficacy similar to Example 3 (Example 4B); set-up: dose or concentration left out as unconfirmed; conditions: vs vehicle; day 44 from inoculation (day 12 from start of measurements)
# Method: as §1
# as §2, with “Mice were administered free drug orally, and injected intravenously for liposomal compounds, with the required volume of sample to administer the prescribed dose to the animals based on individual mouse weights on dosing days.” left out
# Efficacy study similar to those described in Example 3 were also repeated where liposomal ATR inhibitors (Compounds A, C, or berzosertib) were dosed once a week or three times a week. Animal study groups are disclosed in Table 5B (n=8 per group). […]
# [4] = system: non-small-cell lung cancer model (CTG-0828 PDX); assay: Efficacy in NSCLC model CTG-0828 PDX (Example 7)
# Method: An efficacy study similar to those described in Example 3 above, was repeated where liposomal ATR inhibitor (Compounds A) and/or irinotecan were dosed at 50 mg/kg once a week in a non-small-cell lung cancer model (CTG-0828 PDX) for 5 weeks (QWx5) and compared to combinations of liposomal ATR inhibitor (Compounds A) and irinotecan. Animal study groups are disclosed in Table 10 (n=8 per group).
# [5] = system: colorectal carcinoma (CRC) model (Colo205); assay: Efficacy in colorectal cancer model Colo205 (Example 5); conditions: Lipo-G Comp. A 10-40 mg/kg IV QW or irinotecan 50 mg/kg IP QW
# Method: as §1
# as §2, with “Mice were administered free drug orally, and injected intravenously for liposomal compounds, with the required volume of sample to administer the prescribed dose to the animals based on individual mouse weights on dosing days.” left out
# An efficacy study similar to those described in Example 3 above, was repeated where liposomal ATR inhibitors (Compounds A) were dosed once a week in a colorectal carcinoma (CRC) model (Colo205). Animal study groups are disclosed in Table 7 (n=8 per group)
# [6] = irinotecan 50 mg/kg IP QW (reference)
smiles,measurement,setting,value
"CCc1c2c(nc3ccc(OC(=O)N4CCC(N5CCCCC5)CC4)cc13)-c1cc3c(c(=O)n1C2)COC(=O)[C@]3(O)CC [Irinotecan, irinotecan]",TGI % (vs. vehicle) d 20,"[1]; day 20, irinotecan 50 mg/kg IP QW",67%
same,TGI % (vs. vehicle) d 27,"[1]; day 27, irinotecan 50 mg/kg IP QW",74%
same,CR % (complete response),[1]; irinotecan 50 mg/kg IP QW,0%
same,ORR % (objective response rate),[1]; irinotecan 50 mg/kg IP QW,0%
same,TGD (vs. single agent) %,[1]; [6],0%
same,TGD (vs. single agent) Index,[1]; [6],1.0
same,"PR# (partial response), number of mice","[1]; irinotecan 50 mg/kg IP QW, n=8",0 mice
same,"Total R (response), number of mice","[1]; irinotecan 50 mg/kg IP QW, n=8",0 mice
same,TGI % d 28 (d 14),[2],55.4%
same,TGI % D 44(d 12),[3],0%
same,CR tumor regression rate,[4]; 50 mg/kg QWx5,0%
same,Tumor Growth Delay Index (TGDI),[4]; 50 mg/kg QWx5,4.4
same,survival: median time to reach and exceed a tumor burden of 1 cm,"[4]; 50 mg/kg QWx5, statistically significant improvement",100 days
same,Max % Tumor Grown Inhibition (TGI),"[4]; 50 mg/kg each agent, QWx5",91%
same,Regression * (% max),"[4]; 50 mg/kg each agent, QWx5",60%
same,TGDI (vs. vehicle),"[4]; 50 mg/kg each agent, QWx5",4.4
same,activity as single agent,[5],no/limited activity
